In ChEMBL document CHEMBL5360526, “Discovery of BET specific bromodomain inhibitors with a novel scaffold” (Bioorg Med Chem, 2022):

What was measured:
[1] = molecular target: T1, Bromodomain-containing protein 4 (Homo sapiens, UniProt O60885); experiment: Inhibition of N-terminal GST-tagged/C-terminal 6His-tagged BRD4 BD1 (47 to 170 residues) (unknown origin) expressed in Escherichia coli BL21 (DE3) using SGRGK(Ac)GGK(Ac)GLGK(Ac) GGAK(Ac)RHRK-biotinylated peptide as substrate incubated for 60 mins by alpha screen assay
[2] = molecular target: T1, Bromodomain-containing protein 4; experiment: Inhibition of BRD4 BD2 (unknown origin) using SGRGK(Ac)GGK(Ac)GLGK(Ac) GGAK(Ac)RHRK-biotinylated peptide as substrate incubated for 60 mins by alpha screen assay
[3] = molecular target: Histone acetyltransferase KAT2B (Homo sapiens) (UniProt Q92831); experiment: Inhibition of PCAF (unknown origin) assessed as remaining activity
[4] = molecular target: Protein polybromo-1 (Homo sapiens) (UniProt Q86U86); experiment: Inhibition of PBRM1 BD5 (unknown origin) assessed as remaining activity
Chain of Protein polybromo-1 (Homo sapiens) (Q86U86 whole entry, the tested form may be a part): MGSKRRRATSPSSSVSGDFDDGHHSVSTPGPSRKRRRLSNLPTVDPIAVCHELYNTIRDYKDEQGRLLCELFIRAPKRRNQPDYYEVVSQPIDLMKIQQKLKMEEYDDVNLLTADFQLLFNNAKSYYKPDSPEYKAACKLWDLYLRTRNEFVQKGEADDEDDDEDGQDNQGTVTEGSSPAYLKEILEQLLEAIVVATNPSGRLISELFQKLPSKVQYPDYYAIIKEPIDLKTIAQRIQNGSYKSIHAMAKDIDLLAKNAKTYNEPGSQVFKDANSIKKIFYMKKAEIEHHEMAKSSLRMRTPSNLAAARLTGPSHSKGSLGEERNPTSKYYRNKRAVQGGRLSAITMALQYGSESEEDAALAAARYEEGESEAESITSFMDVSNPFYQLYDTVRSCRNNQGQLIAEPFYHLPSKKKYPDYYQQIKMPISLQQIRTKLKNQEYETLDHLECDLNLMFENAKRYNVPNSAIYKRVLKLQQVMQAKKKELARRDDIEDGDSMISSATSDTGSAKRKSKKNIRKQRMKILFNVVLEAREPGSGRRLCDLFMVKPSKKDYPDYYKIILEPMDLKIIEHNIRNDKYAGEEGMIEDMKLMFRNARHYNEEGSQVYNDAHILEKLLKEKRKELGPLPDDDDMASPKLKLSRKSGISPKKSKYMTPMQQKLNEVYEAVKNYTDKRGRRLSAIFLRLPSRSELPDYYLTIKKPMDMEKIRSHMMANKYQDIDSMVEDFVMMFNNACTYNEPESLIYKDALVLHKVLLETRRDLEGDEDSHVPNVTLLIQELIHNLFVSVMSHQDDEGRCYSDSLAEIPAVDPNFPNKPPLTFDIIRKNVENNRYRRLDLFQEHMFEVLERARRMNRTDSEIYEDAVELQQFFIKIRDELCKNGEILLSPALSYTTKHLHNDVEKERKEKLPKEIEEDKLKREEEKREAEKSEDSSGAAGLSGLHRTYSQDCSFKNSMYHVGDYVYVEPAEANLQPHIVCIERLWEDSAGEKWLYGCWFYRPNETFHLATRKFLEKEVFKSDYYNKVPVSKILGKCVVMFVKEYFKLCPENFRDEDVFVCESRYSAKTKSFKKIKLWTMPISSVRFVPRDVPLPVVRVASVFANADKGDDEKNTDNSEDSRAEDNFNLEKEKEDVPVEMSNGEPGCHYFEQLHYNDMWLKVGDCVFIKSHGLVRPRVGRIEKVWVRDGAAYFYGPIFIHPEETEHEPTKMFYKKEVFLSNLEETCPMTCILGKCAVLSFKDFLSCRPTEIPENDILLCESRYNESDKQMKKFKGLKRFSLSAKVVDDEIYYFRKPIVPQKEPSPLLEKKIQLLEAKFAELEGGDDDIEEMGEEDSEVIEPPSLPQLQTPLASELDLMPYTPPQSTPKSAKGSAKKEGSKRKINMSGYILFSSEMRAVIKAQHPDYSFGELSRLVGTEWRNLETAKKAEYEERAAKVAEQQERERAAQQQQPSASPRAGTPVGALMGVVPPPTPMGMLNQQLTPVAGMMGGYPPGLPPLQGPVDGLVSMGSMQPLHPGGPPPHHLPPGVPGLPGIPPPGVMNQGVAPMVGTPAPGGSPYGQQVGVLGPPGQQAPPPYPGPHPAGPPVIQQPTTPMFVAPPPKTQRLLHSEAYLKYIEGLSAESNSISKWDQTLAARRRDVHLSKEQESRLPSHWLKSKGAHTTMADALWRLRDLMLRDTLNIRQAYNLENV

[5] = molecular target: Protein polybromo-1 (Homo sapiens) (UniProt Q86U86); experiment: Inhibition of PBRM1 BD2 (unknown origin) assessed as remaining activity
[6] = molecular target: ATPase family AAA domain-containing protein 2 (Homo sapiens) (UniProt Q6PL18); experiment: Inhibition of ATAD2A (unknown origin) assessed as remaining activity
[7] = molecular target: ATPase family AAA domain-containing protein 2B (Homo sapiens) (UniProt Q9ULI0); experiment: Inhibition of ATAD2B (unknown origin) assessed as remaining activity
Chain of ATPase family AAA domain-containing protein 2B (Homo sapiens) (Q9ULI0 whole entry, the tested form may be a part): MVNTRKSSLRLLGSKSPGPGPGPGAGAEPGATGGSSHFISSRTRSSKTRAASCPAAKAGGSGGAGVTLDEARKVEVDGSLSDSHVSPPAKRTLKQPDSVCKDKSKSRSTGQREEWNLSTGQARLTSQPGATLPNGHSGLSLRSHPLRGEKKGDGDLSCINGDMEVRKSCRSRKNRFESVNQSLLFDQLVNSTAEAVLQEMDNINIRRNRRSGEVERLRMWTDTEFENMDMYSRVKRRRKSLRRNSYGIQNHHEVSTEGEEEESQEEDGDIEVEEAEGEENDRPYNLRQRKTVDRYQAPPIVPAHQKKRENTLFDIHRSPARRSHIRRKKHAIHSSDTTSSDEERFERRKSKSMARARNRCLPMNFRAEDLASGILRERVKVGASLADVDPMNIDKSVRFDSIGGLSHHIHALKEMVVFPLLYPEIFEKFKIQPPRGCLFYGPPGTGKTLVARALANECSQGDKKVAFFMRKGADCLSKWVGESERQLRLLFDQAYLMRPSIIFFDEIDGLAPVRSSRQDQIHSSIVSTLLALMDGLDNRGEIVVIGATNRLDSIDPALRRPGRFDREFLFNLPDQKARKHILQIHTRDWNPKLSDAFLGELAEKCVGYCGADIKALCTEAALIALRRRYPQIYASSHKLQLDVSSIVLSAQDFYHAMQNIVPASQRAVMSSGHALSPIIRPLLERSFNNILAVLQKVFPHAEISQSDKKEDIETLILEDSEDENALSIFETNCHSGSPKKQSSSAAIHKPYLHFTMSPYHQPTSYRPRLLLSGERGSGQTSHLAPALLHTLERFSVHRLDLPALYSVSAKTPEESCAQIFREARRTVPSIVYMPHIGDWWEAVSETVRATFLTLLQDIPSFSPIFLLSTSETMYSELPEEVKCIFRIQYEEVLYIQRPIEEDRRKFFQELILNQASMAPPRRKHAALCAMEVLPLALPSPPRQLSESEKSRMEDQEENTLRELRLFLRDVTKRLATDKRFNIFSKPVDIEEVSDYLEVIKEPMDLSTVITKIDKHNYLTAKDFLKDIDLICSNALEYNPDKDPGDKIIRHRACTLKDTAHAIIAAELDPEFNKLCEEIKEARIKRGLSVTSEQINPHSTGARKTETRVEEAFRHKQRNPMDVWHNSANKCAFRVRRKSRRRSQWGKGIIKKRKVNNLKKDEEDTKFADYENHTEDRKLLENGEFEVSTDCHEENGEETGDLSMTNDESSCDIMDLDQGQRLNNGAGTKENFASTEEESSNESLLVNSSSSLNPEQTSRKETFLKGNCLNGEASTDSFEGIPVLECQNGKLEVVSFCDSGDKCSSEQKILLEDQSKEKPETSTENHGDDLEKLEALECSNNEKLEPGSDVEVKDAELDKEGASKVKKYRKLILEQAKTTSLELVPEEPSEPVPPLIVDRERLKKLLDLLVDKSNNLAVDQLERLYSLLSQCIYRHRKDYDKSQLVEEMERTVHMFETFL

[8] = molecular target: Bromodomain adjacent to zinc finger domain protein 2A (Homo sapiens) (UniProt Q9UIF9); experiment: Inhibition of BAZ2A (unknown origin) assessed as remaining activity
[9] = molecular target: Bromodomain adjacent to zinc finger domain protein 2B (Homo sapiens) (UniProt Q9UIF8); experiment: Inhibition of BAZ2B (unknown origin) assessed as remaining activity
[10] = molecular target: Bromodomain-containing protein 1 (Homo sapiens) (UniProt O95696); experiment: Inhibition of BRD1 (unknown origin) assessed as remaining activity
[11] = molecular target: Bromodomain-containing protein 2 (Homo sapiens) (UniProt P25440); experiment: Inhibition of BRD2 BD1 (unknown origin) assessed as remaining activity
Chain of Bromodomain-containing protein 2 (Homo sapiens) (P25440 whole entry, looked up): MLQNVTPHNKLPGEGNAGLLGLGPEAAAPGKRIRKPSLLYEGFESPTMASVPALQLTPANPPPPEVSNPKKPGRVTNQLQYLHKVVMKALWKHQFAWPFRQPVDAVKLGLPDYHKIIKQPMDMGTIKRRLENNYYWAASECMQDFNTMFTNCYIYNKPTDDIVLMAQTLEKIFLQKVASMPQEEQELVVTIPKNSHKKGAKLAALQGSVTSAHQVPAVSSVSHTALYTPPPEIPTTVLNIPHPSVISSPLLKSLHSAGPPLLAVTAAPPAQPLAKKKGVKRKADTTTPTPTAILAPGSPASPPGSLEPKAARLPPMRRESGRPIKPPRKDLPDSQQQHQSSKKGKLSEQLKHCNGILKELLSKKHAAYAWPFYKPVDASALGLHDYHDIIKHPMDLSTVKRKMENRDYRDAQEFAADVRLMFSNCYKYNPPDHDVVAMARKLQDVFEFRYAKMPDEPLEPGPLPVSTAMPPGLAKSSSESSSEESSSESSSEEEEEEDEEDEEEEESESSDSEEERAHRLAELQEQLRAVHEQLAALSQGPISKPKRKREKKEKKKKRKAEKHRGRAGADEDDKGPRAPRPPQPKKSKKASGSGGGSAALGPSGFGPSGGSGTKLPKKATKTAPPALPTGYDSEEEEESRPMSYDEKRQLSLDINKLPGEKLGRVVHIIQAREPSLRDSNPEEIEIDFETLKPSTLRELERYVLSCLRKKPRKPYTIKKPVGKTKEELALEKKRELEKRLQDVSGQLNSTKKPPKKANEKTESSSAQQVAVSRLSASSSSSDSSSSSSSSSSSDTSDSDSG

[12] = molecular target: Bromodomain-containing protein 2 (Homo sapiens) (UniProt P25440); experiment: Inhibition of BRD2 BD2 (unknown origin) assessed as remaining activity
[13] = molecular target: Bromodomain-containing protein 3 (Homo sapiens) (UniProt Q15059); experiment: Inhibition of BRD3 BD1 (unknown origin) assessed as remaining activity
Chain of Bromodomain-containing protein 3 (Homo sapiens) (Q15059 2-726 limits assumed): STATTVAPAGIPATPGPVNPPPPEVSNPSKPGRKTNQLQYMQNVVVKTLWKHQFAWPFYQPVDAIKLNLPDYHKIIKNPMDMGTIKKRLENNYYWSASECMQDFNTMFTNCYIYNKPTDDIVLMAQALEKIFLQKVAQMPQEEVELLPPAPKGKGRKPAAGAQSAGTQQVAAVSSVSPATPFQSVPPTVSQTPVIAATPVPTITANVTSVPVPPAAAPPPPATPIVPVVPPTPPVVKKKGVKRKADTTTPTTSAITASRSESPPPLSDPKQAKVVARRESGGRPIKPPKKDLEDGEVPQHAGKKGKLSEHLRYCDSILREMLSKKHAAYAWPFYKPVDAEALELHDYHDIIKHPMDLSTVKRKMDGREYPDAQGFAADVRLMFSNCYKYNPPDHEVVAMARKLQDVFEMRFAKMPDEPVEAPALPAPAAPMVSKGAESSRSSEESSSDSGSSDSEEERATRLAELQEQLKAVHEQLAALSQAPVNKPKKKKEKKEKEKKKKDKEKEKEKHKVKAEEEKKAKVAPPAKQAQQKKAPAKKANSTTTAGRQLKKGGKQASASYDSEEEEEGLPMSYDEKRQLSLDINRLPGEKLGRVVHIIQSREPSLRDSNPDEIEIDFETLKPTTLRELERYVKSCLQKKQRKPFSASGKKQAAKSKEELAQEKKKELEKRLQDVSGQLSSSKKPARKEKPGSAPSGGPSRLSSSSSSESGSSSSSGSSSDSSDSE

[14] = molecular target: Bromodomain-containing protein 3 (Homo sapiens) (UniProt Q15059); experiment: Inhibition of BRD3 BD2 (unknown origin) assessed as remaining activity
[15] = molecular target: T1, Bromodomain-containing protein 4; experiment: Inhibition of BRD4 BD1 (unknown origin) assessed as remaining activity
[16] = molecular target: T1, Bromodomain-containing protein 4; experiment: Inhibition of BRD4 BD2 (unknown origin) assessed as remaining activity
[17] = molecular target: SWI/SNF-related matrix-associated actin-dependent regulator of chromatin subfamily A member 2 (Homo sapiens) (UniProt P51531); experiment: Inhibition of SMARCA2 (unknown origin) assessed as remaining activity
[18] = molecular target: SWI/SNF-related matrix-associated actin-dependent regulator of chromatin subfamily A member 4 (Homo sapiens) (UniProt P51532); experiment: Inhibition of SMARCA4 (unknown origin) assessed as remaining activity
[19] = molecular target: Transcription initiation factor TFIID subunit 1 (Homo sapiens) (UniProt P21675); experiment: Inhibition of TAF1 BD2 (unknown origin) assessed as remaining activity
[20] = molecular target: Transcription initiation factor TFIID subunit 1-like (Homo sapiens) (UniProt Q8IZX4); experiment: Inhibition of TAF1L BD2 (unknown origin) assessed as remaining activity
[21] = molecular target: Transcription intermediary factor 1-alpha (Homo sapiens) (UniProt O15164); experiment: Inhibition of TRIM24 (unknown origin) assessed as remaining activity
[22] = molecular target: E3 ubiquitin-protein ligase TRIM33 (Homo sapiens) (UniProt Q9UPN9); experiment: Inhibition of TRIM33 (unknown origin) assessed as remaining activity
[23] = molecular target: Bromodomain and WD repeat-containing protein 1 (Homo sapiens) (UniProt Q9NSI6); experiment: Inhibition of WDR9 BD2 (unknown origin) assessed as remaining activity
[24] = molecular target: Bromodomain-containing protein 7 (Homo sapiens) (UniProt Q9NPI1); experiment: Inhibition of BRD7 (unknown origin) assessed as remaining activity
[25] = molecular target: Bromodomain-containing protein 9 (Homo sapiens) (UniProt Q9H8M2); experiment: Inhibition of BRD9 (unknown origin) assessed as remaining activity
[26] = molecular target: Bromodomain testis-specific protein (Homo sapiens) (UniProt Q58F21); experiment: Inhibition of BRDT BD1 (unknown origin) assessed as remaining activity
[27] = molecular target: Bromodomain testis-specific protein (Homo sapiens) (UniProt Q58F21); experiment: Inhibition of BRDT BD2 (unknown origin) assessed as remaining activity
[28] = molecular target: Peregrin (Homo sapiens) (UniProt P55201); experiment: Inhibition of BRPF1 (unknown origin) assessed as remaining activity
[29] = molecular target: Bromodomain and PHD finger-containing protein 3 (Homo sapiens) (UniProt Q9ULD4); experiment: Inhibition of BRPF3 (unknown origin) assessed as remaining activity
[30] = molecular target: Chromatin remodeling regulator CECR2 (Homo sapiens) (UniProt Q9BXF3); experiment: Inhibition of CECR2 (unknown origin) assessed as remaining activity
[31] = molecular target: CREB-binding protein (Homo sapiens) (UniProt Q92793); experiment: Inhibition of CREBBP (unknown origin) assessed as remaining activity
[32] = molecular target: Histone acetyltransferase p300 (Homo sapiens) (UniProt Q09472); experiment: Inhibition of EP300 (unknown origin) assessed as remaining activity
[33] = molecular target: Nucleosome-remodeling factor subunit BPTF (Homo sapiens) (UniProt Q12830); experiment: Inhibition of FALZ (unknown origin) assessed as remaining activity
[34] = molecular target: Histone acetyltransferase KAT2A (Homo sapiens) (UniProt Q92830); experiment: Inhibition of GCN5L2 (unknown origin) assessed as remaining activity
[35] = Microsomal stability in mouse liver microsomes assessed as parent compound remaining measured after 30 mins; format: ADME, Microsome; settings: read-out: Stability
[36] = Microsomal stability in human liver microsomes assessed as parent compound remaining measured after 30 mins; format: ADME, Microsome; settings: read-out: Stability

**Q.** For `CC(C)Nc1ccc(NS(=O)(=O)c2ccccc2)c(Nc2ccc3[nH]nnc3c2)n1`, which IC50 [1] is on record?
**A.** 510 nM

**Q.** And the IC50 [2]?
**A.** 640 nM

**Q.** For `CC(C)Nc1ccc(NS(=O)(=O)C2CC2)c(Nc2ccc3[nH]nnc3c2)n1`, which IC50 [1] is on record?
**A.** 1830 nM

**Q.** What about the IC50 [2] of the same compound?
**A.** 1800 nM

**Q.** With `C[C@H](Nc1ccc(NS(=O)(=O)N(C)C)c(Nc2ccc3[nH]nnc3c2)n1)[C@@H](c1ccccc1)N(C)C` as the compound, how does the IC50 [1] read?
**A.** 3220 nM

**Q.** And the IC50 [2]?
**A.** 6900 nM

**Q.** What does the source list for `CC(C)Nc1ccc(NS(=O)(=O)c2ccc(F)cc2)c(Nc2ccc3[nH]nnc3c2)n1`?
**A.** IC50 [1]: 240 nM; IC50 [2]: 300 nM

**Q.** With `CN(C)S(=O)(=O)Nc1ccc(NCCc2c[nH]c3ccccc23)nc1Nc1ccc2[nH]nnc2c1` as the compound, how does the IC50 [1] read?
**A.** 3620 nM

**Q.** Which IC50 [1] does the source give for `CC(C)Nc1ccc(NS(=O)(=O)c2ccccc2C(F)(F)F)c(Nc2ccc3[nH]nnc3c2)n1` here?
**A.** 1610 nM

**Q.** What about the IC50 [2] of the same compound?
**A.** 1570 nM

**Q.** What does the source list for `CN(C)S(=O)(=O)Nc1ccc(NCC2CCCO2)nc1Nc1ccc2[nH]nnc2c1` (stereo unspecified)?
**A.** IC50 [1]: 9600 nM; IC50 [2]: 8420 nM

**Q.** For `CCS(=O)(=O)Nc1ccc(NC(C)C)nc1Nc1ccc2[nH]nnc2c1`, which IC50 [1] is on record?
**A.** 3860 nM

**Q.** What about the IC50 [2] of the same compound?
**A.** 4470 nM

**Q.** With `CC(C)Nc1ccc(NS(=O)(=O)c2cccs2)c(Nc2ccc3[nH]nnc3c2)n1` as the compound, how does the IC50 [1] read?
**A.** 770 nM

**Q.** And the IC50 [2]?
**A.** 780 nM

**Q.** Which IC50 [1] does the source give for `CN(C)S(=O)(=O)Nc1ccc(NCc2ccc3c(c2)OCO3)nc1Nc1ccc2[nH]nnc2c1` here?
**A.** 7700 nM

**Q.** Which IC50 [1] does the source give for `CC(C)Nc1ccc(NS(=O)(=O)c2ccc(F)cc2F)c(Nc2ccc3[nH]nnc3c2)n1` here?
**A.** 800 nM

**Q.** And the IC50 [2]?
**A.** 720 nM

**Q.** Which results are given for `CC(C)Nc1ccc([N+](=O)[O-])c(Nc2ccc3c(c2)nnn3C)n1`?
**A.** IC50 [1]: 4220 nM; IC50 [2]: 10300 nM

**Q.** Which IC50 [1] does the source give for `CC(C)Nc1ccc(NS(C)(=O)=O)c(Nc2ccc3[nH]nnc3c2)n1` here?
**A.** 2470 nM

**Q.** What about the IC50 [2] of the same compound?
**A.** 2860 nM

**Q.** With `CN(C)S(=O)(=O)Nc1ccc(NCCc2ccccc2)nc1Nc1ccc2[nH]nnc2c1` as the compound, how does the IC50 [1] read?
**A.** 5250 nM

**Q.** With `CC(C)Nc1ccc(NS(=O)(=O)C2CCCCC2)c(Nc2ccc3[nH]nnc3c2)n1` as the compound, how does the IC50 [1] read?
**A.** 660 nM

**Q.** And the IC50 [2]?
**A.** 900 nM

**Q.** With `COCC(C)Nc1ccc(NS(=O)(=O)N(C)C)c(Nc2ccc3[nH]nnc3c2)n1` (stereo unspecified) as the compound, how does the Activity [3] read?
**A.** 88%

**Q.** What about the Activity [4] of the same compound?
**A.** 73%

**Q.** What about the Activity [5] of the same compound?
**A.** 44%

**Q.** And the IC50 [1]?
**A.** 2860 nM

**Q.** And the IC50 [2]?
**A.** 8010 nM

**Q.** What about the Activity [6] of the same compound?
**A.** 66%

**Q.** What about the Activity [7] of the same compound?
**A.** 55%

**Q.** And the Activity [8]?
**A.** 82%

**Q.** What about the Activity [9] of the same compound?
**A.** 84%

**Q.** And the Activity [10]?
**A.** 42%

**Q.** And the Activity [11]?
**A.** 0%

**Q.** What about the Activity [12] of the same compound?
**A.** 19%

**Q.** And the Activity [13]?
**A.** 0.95%

**Q.** What about the Activity [14] of the same compound?
**A.** 35%

**Q.** And the Activity [15]?
**A.** 0.45%

**Q.** What about the Activity [16] of the same compound?
**A.** 22%

**Q.** And the Activity [17]?
**A.** 62%

**Q.** What about the Activity [18] of the same compound?
**A.** 75%

**Q.** And the Activity [19]?
**A.** 31%

**Q.** What about the Activity [20] of the same compound?
**A.** 86%

**Q.** What about the Activity [21] of the same compound?
**A.** 98%

**Q.** And the Activity [22]?
**A.** 92%

**Q.** What about the Activity [23] of the same compound?
**A.** 44%

**Q.** What about the Activity [24] of the same compound?
**A.** 67%

**Q.** What about the Activity [25] of the same compound?
**A.** 64%

**Q.** What about the Activity [26] of the same compound?
**A.** 2.7%

**Q.** And the Activity [27]?
**A.** 32%

**Q.** What about the Activity [28] of the same compound?
**A.** 78%

**Q.** And the Activity [29]?
**A.** 71%

**Q.** What about the Activity [30] of the same compound?
**A.** 73%

**Q.** And the Activity [31]?
**A.** 88%

**Q.** And the Activity [32]?
**A.** 82%

**Q.** What about the Activity [33] of the same compound?
**A.** 77%

**Q.** And the Activity [34]?
**A.** 88%

**Q.** And the remaining at 0.5 h [35]?
**A.** 28%

**Q.** What about the remaining at 0.5 h [36] of the same compound?
**A.** 32.9%

**Q.** For `CN(C)S(=O)(=O)Nc1ccc(NCc2ccccc2)nc1Nc1ccc2[nH]nnc2c1`, which IC50 [1] is on record?
**A.** 2230 nM

**Q.** For `CN(C)S(=O)(=O)Nc1ccc(NCC(O)c2ccccc2)nc1Nc1ccc2[nH]nnc2c1` (stereo unspecified), which IC50 [1] is on record?
**A.** 5590 nM

**Q.** And the IC50 [2]?
**A.** 5110 nM

**Q.** Which IC50 [1] does the source give for `CN(C)S(=O)(=O)Nc1ccc(NCCO)nc1Nc1ccc2[nH]nnc2c1` here?
**A.** 5700 nM

**Q.** What about the IC50 [2] of the same compound?
**A.** 8250 nM

**Q.** Which IC50 [1] does the source give for `CC(C)Nc1ccc(NC(=O)Nc2ccccc2)c(Nc2ccc3[nH]nnc3c2)n1` here?
**A.** 6890 nM

**Q.** And the IC50 [2]?
**A.** 10200 nM

**Q.** For `CN(C)S(=O)(=O)Nc1ccc(N2CCOCC2)nc1Nc1ccc2[nH]nnc2c1`, which IC50 [1] is on record?
**A.** 4600 nM

**Q.** And the IC50 [2]?
**A.** 5820 nM

**Q.** Which IC50 [1] does the source give for `CC(C)Nc1ccc(NS(=O)(=O)c2c(F)cc(F)cc2F)c(Nc2ccc3[nH]nnc3c2)n1` here?
**A.** 620 nM

**Q.** What about the IC50 [2] of the same compound?
**A.** 900 nM

**Q.** Which results are given for `CC(C)Nc1ccc(NS(=O)(=O)c2c(F)cccc2F)c(Nc2ccc3[nH]nnc3c2)n1`?
**A.** IC50 [1]: 780 nM; IC50 [2]: 1040 nM
